# pIC50: −log10 of the molar value.
# Target: Factor D (Homo sapiens (Human), UniProt P00746)
# Assay: Factor D esterolytic assay
# Assay type: biochemical
# Details: Z-Lys-SBzl substrate, 100 mM HEPES, 500 mM NaCl, pH 7.5, 10% DMSO; tested a minimum of three times; read-out: Measured Ki (IC50) Value for Compounds: IC50
# Summary of the method: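 Chromogenic thioesterase read-out: Z-Lys-SBzl (1.29 mM) hydrolysis by human Factor D, thiol detected with DTNB at 405 nm (690 nm background subtracted) for 600 s. Run in 100 mM HEPES, 500 mM NaCl, pH 7.5, 10% DMSO, substrate added immediately or after room-temperature preincubation. IC50 from percent inhibition versus enzyme alone, n≥3.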
# Factor D, sequence (P00746 26-253): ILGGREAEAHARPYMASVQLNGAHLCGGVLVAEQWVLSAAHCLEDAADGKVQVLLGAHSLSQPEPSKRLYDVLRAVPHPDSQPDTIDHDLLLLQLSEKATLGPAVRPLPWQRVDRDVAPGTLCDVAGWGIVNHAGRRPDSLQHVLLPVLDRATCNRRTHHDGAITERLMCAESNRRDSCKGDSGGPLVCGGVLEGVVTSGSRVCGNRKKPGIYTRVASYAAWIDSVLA
row,Compound,pIC50
1,"Cc1cc2c(o1)c(-c1cccc(CN)c1)cc1c(COc3ccccc3CC(=O)O)coc12 [Compound 283g, 2-(2-((5-(3-(aminomethyl)phenyl)-7-methylbenzo[1,2-b:3,4-b′]difuran-3-yl)methoxy)phenyl)acetic acid]",> 6.00
2,"NCc1cccc(-c2ccc3occ(Cc4ccccc4CC(=O)O)c3c2)c1 [Compound 73f, 2-(2-((5-(3-(aminomethyl)phenyl)benzofuran-3-yl)methyl)phenyl)acetic acid]",5.00 to 6.00
3,"NCc1cccc(-c2cc(COc3ccccc3)cc3cc(COc4ccccc4CC(=O)O)oc23)c1 [Compound 33f, 2-(2-((7-(3-(aminomethyl)phenyl)-5-(phenoxymethyl)benzofuran-2-yl)methoxy)phenyl)acetic acid]",> 6.00
4,"NCc1cccc(-c2ccc3occ(COc4c(CN)cccc4CC(=O)O)c3c2)c1 [Compound 145c, 2-(3-(aminomethyl)-2-((5-(3-(aminomethyl)phenyl)benzofuran-3-yl)methoxy)phenyl)acetic acid]",> 6.00
5,"COc1ccc(CC(=O)O)c(OCc2coc3c(NCC4CCCC4)cc(-c4cccc(CN)c4)cc23)c1 [Compound 277c, 2-(2-((5-(3-(aminomethyl)phenyl)-7-((cyclopentylmethyl)amino)benzofuran-3-yl)methoxy)-4-methoxyphenyl)acetic acid]",> 6.00
6,"CN(Cc1cc(-c2cccc(CN)c2)cc2c(COc3ccccc3CC(=O)O)coc12)CC1CC1 [Compound 263e, 2-(2-((5-(3-(aminomethyl)phenyl)-7-(((cyclopropylmethyl)(methyl)amino)methyl)benzofuran-3-yl)methoxy)phenyl)acetic acid]",> 6.00
7,"Cc1oc2ccc(-c3cccc(CN)c3)cc2c1COc1cc(F)ccc1CC(=O)O [Compound 200c, 2-(2-((5-(3-(aminomethyl)phenyl)-2-methylbenzofuran-3-yl)methoxy)-4-fluorophenyl)acetic acid]",> 6.00
8,"NCc1nccc(-c2ccc3occ(COc4ccccc4CC(=O)O)c3c2)c1F [Compound 50d, 2-(2-((5-(2-(aminomethyl)-3-fluoropyridin-4-yl)benzofuran-3-yl)methoxy)phenyl)acetic acid]",> 6.00
9,"NCc1cccc(-c2cc(NCC3CCCO3)c3occ(COc4ccccc4CC(=O)O)c3c2)c1 (stereo not drawn) [Compound 149d, 2-(2-((5-(3-(aminomethyl)phenyl)-7-(((tetrahydrofuran-2-yl)methyl)amino)benzofuran-3-yl)methoxy)phenyl)acetic acid]",> 6.00
10,"NCc1cccc(-c2cc(-c3ccccc3)c3occ(COc4ccccc4CC(=O)O)c3c2)c1 [Compound 135c, 2-(2-((5-(3-(aminomethyl)phenyl)-7-phenylbenzofuran-3-yl)methoxy)phenyl)acetic acid]",> 6.00
11,"CCOC(=O)Cc1ccccc1OCc1cc2c(-c3cccc(CN)c3)cccc2o1 [Compound 25c, ethyl 2-(2-((4-(3-(aminomethyl)phenyl)benzofuran-2-yl)methoxy)phenyl)acetate]",< 5.00
12,"COc1ccc(CC(=O)O)c(OCc2c(F)oc3ccc(-c4cccc(CN)c4)cc23)c1 [Compound 172f, 2-(2-((5-(3-(aminomethyl)phenyl)-2-fluorobenzofuran-3-yl)methoxy)-4-methoxyphenyl)acetic acid]",> 6.00
13,"COc1ccc(CC(=O)O)c(OCc2c(C(F)F)oc3ccc(-c4cccc(CN)c4)cc23)c1 [Compound 215d, 2-(2-((5-(3-(aminomethyl)phenyl)-2-(difluoromethyl)benzofuran-3-yl)methoxy)-4-methoxyphenyl)acetic acid]",> 6.00
14,"CC(C)n1nc(COc2ccccc2CC(=O)O)c2cc(-c3cc(O)cc(CN)c3)ccc21 [Compound 243g, 2-(2-((5-(3-(aminomethyl)-5-hydroxyphenyl)-1-isopropyl-1H-indazol-3-yl)methoxy)phenyl)acetic acid]",> 6.00
15,"COc1c(CN)cccc1-c1cc(OC)c2occ(COc3ccccc3CC(=O)O)c2c1 [Compound 324d, 2-(2-((5-(3-(aminomethyl)-2-methoxyphenyl)-7-methoxybenzofuran-3-yl)methoxy)phenyl)acetic acid]",> 6.00
16,"NCc1cccc(-c2cc(N3CCOCC3)c3occ(COc4ccccc4CC(=O)O)c3c2)c1 [Compound 154c, 2-(2-((5-(3-(aminomethyl)phenyl)-7-morpholinobenzofuran-3-yl)methoxy)phenyl)acetic acid]",> 6.00
17,"NCc1cccc(-c2ccc3c(c2)c(COc2ccccc2CC(=O)O)nn3C2CCCCO2)c1 (stereo not drawn) [Compound 80d, 2-(2-((5-(3-(aminomethyl)phenyl)-1-(tetrahydro-2H-pyran-2-yl)-1H-indazol-3-yl)methoxy)phenyl)acetic acid]",> 6.00
18,"NCc1cccc(-c2cc(OCCN3CCOCC3)c3occ(COc4ccccc4CC(=O)O)c3c2)c1 [Compound 250f, 2-(2-((5-(3-(aminomethyl)phenyl)-7-(2-morpholinoethoxy)benzofuran-3-yl)methoxy)phenyl)acetic acid]",> 6.00
19,"NCc1cccc(-c2cc(-c3cccnc3)c3occ(COc4ccccc4CC(=O)O)c3c2)c1 [Compound 162c, 2-(2-((5-(3-(aminomethyl)phenyl)-7-(pyridin-3-yl)benzofuran-3-yl)methoxy)phenyl)acetic acid]",> 6.00
20,"Cc1ccc(CC(=O)O)c(OCc2coc3ccc(-c4cccc(CN)c4)cc23)c1 [Compound 47d, 2-(2-((5-(3-(aminomethyl)phenyl)benzofuran-3-yl)methoxy)-4-methylphenyl)acetic acid]",> 6.00
21,"NCc1cc(F)cc(-c2ccc3occ(Cc4cccc(CC(=O)O)c4O)c3c2)c1 [Compound 40d, 2-(3-((5-(3-(aminomethyl)-5-fluorophenyl)benzofuran-3-yl)methyl)-2-hydroxyphenyl)acetic acid]",5.00 to 6.00
22,"NCc1cccc(-c2cc3c(COc4ccccc4CC(=O)O)cccc3o2)c1 [Compound 282f, 2-(2-((2-(3-(aminomethyl)phenyl)benzofuran-4-yl)methoxy)phenyl)acetic acid]",> 6.00
23,"Cn1cc(-c2cc(-c3cccc(CN)c3)cc3c(COc4ccccc4CC(=O)O)c(C(=O)O)oc23)cn1 [Compound 60d, 5-(3-(aminomethyl)phenyl)-3-((2-(carboxymethyl)phenoxy)methyl)-7-(1-methyl-1H-pyrazol-4-yl)benzofuran-2-carboxylic acid]",> 6.00
24,"COc1ccc(CC(=O)O)c(OCc2c(C(C)C)oc3ccc(-c4cccc(CN)c4)cc23)c1 [Compound 169c, 2-(2-((5-(3-(aminomethyl)phenyl)-2-isopropylbenzofuran-3-yl)methoxy)-4-methoxyphenyl)acetic acid]",> 6.00
25,"COc1ccc(CC(=O)O)c(OCc2c(C)oc3c(C4CC4)cc(-c4cccc(CN)c4)cc23)c1 [Compound 273j, 2-(2-((5-(3-(aminomethyl)phenyl)-7-cyclopropyl-2-methylbenzofuran-3-yl)methoxy)-4-methoxyphenyl)acetic acid]",> 6.00
26,"CC(C)n1nc(COc2ccccc2CC(=O)O)c2cc(-c3cccc(CN)c3F)ccc21 [Compound 310b, 2-(2-((5-(3-(aminomethyl)-2-fluorophenyl)-1-isopropyl-1H-indazol-3-yl)methoxy)phenyl)acetic acid]",> 6.00
27,"NCc1cccc(-c2ccc3[nH]nc(COc4ccccc4CC(=O)O)c3c2)c1 [Compound 81a, 2-(2-((5-(3-(aminomethyl)phenyl)-1H-indazol-3-yl)methoxy)phenyl)acetic acid]",> 6.00
